# Assay results as given in article PMC4186475 (Influenza and Other Respiratory Viruses, 2013).
# How the values were obtained:
# [1] = system: neuraminidase (NA) of influenza A (H1N1)pdm09 viruses; type: biochemical, influenza A (H1N1)pdm09 virus
# [2] = system: neuraminidase (NA) of variant influenza A (H3N2)v viruses; type: biochemical, influenza A (H3N2)v virus
# [3] = system: neuraminidase (NA) of influenza B viruses; type: biochemical, influenza B virus
SMILES,"Fold change in IC50 of test viruses, Approach #1 [1]","Fold change in IC50 of test viruses, Approach #2 [1]","Fold change in IC50 of test viruses, Approach #3 [1]",fold change in IC50 of outliers [1],fold change in IC50 of outliers [2],"Fold change in IC50 of test viruses, Approach #2 [3]"
"CCOC(=O)C1=C[C@@H](OC(CC)CC)[C@H](NC(C)=O)[C@@H](N)C1 [Oseltamivir, Oseltamivir (carboxylate)]",319–1474 (8) fold,182–1403 (8) fold,213–1637 (8) fold,38-27-294·72 (213–1637) fold,5·30 (35) fold,5–8 (2) fold
"CC(=O)N[C@H]1[C@H]([C@H](O)[C@H](O)CO)OC(C(=O)O)=C[C@@H]1N=C(N)N [Zanamivir, zanamivir]",,,,,35·74 (70) fold,7 (1) fold
